Assay results published in US20240270751A1, “Pyrazolopyridinone Compounds” (BeiGene Ltd., priority 2021, published 2024).
pIC50: −log10 of the molar value.

How the values were obtained:
[1] = biological target: DGKζ (Homo sapiens (Human), UniProt Q13574); test: Biochemical DGK IC50 assay, DGKζ ADP-Glo assay; details: 0.5 nM enzyme, 140 μM ATP, 80 μM DAG; read-out: DGKζ ADP-Glo assay IC50
Procedure: (§1) Enzymatic reactions of DGKζ, DGKα and DGKδ were performed using ADP-Glo assay with lipid micelle substrate. […] Full length DGKα (D21-10BG, SignalChem) and full length DGKδ (D23-10G, SignalChem) were purchased. Lipid micelle was prepared by dissolving DAG (Sigma, 317505-10MG) and PS (Sigma, P7769-100MG) with chloroform which was furtherly removed by rotary evaporation. The resulted product was resuspended in buffer containing 25 mM HEPES pH 7.0, 0.5 mM EDTA and 160 mM Octyl β-D glucopyranoside by vigorous mixing and ultrasonic (IID, Scientz).
(§2) The ranges of compounds final concentration were 1.55˜10000 nM or 23.3˜150000 nM. 3 μL 2× enzyme solution was added to wells.
Human His-TEV-DGK-zeta-pFastBac1 and human baculovirus samples was generated using the Bac-to-Bac baculovirus expression system (Invitrogen) according to the manufacturer's protocol. The DNA used for expression of DGK-zeta, have SEQ ID Nos: 1. Baculovirus amplification was achieved using infected SF9 cells at 1:2000 virus/cells ratios, and grown for 96 hours at 27° C. post-transfected.
The expression scaled up for each protein was carried out in the […] from CORNING. 4 L of 3×10^6 cells/mL Sf9 cells (Expression System, Invitrogen) grown in SF900™ II SFM insect medium (Expression System) was infected with virus stock at 1:200 virus/cells ratio, and grown for 48 hours at 27° C. post-transfection. The infected cell culture was harvested by centrifugation at 6000 rpm for 15 min 4° C. in a SORVALL LYNX6000 centrifuge. The cell pellets were stored at −80° C.
Full length human DGKζ produced as described above, was purified from Sf9 baculovirus-infected insect cell paste. The cells were lysed using sonication method, and the lysates were clarified by centrifugation.

[2] = biological target: DGKα (Homo sapiens (Human), UniProt P23743); test: Biochemical DGK IC50 assay, DGKα ADP-Glo assay; details: 7.5 nM enzyme, 140 μM ATP, 80 μM DAG
Chain of DGKα (P23743 whole entry): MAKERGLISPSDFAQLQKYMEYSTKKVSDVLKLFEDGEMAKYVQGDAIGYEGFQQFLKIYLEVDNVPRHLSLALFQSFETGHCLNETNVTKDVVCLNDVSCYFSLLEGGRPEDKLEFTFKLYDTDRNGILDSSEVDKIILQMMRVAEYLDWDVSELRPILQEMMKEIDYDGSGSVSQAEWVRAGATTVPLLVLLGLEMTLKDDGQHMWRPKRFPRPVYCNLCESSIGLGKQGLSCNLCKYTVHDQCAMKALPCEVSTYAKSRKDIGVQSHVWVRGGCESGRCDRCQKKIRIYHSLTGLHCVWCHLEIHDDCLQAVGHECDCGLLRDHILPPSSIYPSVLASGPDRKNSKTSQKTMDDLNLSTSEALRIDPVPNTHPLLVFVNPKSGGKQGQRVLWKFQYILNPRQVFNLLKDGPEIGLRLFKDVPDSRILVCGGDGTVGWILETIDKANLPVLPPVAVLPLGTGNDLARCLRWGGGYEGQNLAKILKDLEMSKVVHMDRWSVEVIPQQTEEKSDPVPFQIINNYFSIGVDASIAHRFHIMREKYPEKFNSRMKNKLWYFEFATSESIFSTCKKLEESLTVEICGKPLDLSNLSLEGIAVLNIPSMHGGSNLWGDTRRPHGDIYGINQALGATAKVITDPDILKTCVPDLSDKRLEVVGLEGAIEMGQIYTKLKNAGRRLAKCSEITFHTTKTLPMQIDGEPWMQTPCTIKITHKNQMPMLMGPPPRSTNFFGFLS
Procedure: as §1, §2

Chain of DGKζ (Q13574 other isoform, or with tags, fused parts or gaps): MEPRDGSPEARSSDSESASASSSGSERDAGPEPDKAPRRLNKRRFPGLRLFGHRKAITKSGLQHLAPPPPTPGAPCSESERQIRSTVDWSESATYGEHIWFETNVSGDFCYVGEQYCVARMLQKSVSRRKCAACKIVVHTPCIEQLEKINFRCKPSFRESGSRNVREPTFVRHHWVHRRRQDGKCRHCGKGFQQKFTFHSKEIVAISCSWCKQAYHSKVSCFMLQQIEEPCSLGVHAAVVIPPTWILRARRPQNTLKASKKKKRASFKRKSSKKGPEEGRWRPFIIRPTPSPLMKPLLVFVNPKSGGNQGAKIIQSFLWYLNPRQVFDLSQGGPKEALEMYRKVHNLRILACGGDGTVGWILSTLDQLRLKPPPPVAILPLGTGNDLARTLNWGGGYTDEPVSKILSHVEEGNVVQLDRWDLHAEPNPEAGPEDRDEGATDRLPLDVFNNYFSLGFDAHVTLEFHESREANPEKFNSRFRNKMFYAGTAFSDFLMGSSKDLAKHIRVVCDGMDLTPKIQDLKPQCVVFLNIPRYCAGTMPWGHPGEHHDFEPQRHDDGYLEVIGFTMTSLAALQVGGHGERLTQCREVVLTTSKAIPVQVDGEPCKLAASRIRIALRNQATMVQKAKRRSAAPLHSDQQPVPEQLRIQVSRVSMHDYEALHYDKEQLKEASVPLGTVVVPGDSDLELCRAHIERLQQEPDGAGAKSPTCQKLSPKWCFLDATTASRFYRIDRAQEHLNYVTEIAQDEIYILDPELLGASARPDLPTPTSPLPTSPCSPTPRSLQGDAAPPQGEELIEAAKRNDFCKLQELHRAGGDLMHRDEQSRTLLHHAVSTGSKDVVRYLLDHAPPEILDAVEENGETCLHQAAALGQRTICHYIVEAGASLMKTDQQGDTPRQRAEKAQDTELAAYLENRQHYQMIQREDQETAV

Row | SMILES | pIC50 [1] | pIC50 [2]
1 | Cc1nc2cccc(C(C)N3C[C@H](C)N(c4cc(=O)n(C)c5cn(CC#N)nc45)C[C@H]3C)c2o1 (some centres unmarked) [Compound A42] | 5.47 | < 5.00
2 | CC[C@H]1CN(C(C)c2c(C)cccc2C(F)(F)F)[C@H](CC)CN1c1cc(=O)n(C)c2cn(CC#N)nc12 (some centres unmarked) [Compound A117] | 5.41 | < 5.00
3 | CC[C@@H]1CN(c2cc(=O)n(C)c3cn(CC#N)nc23)[C@@H](CC)CN1C(=O)c1cccc(C(F)(F)F)c1 [Compound A206, 2-(7-((2S,5R)-2,5-diethyl-4-(3-(trifluoromethyl)benzoyl)piperazin-1-yl)-4-methyl-5-oxo-4,5-dihydro-2H-pyrazolo[4,3-b]pyridin-2-yl)acetonitrile] | 5.64 | 5.59
4 | CC[C@H]1CN(C(C)c2ccc(F)cc2C2CC2)[C@H](CC)CN1c1cc(=O)n(C)c2cn(CC#N)nc12 (some centres unmarked) [Compound A175] | 6.52 | < 5.00
5 | CC[C@H]1CN(C(C)c2ccc(F)cc2C(F)(F)F)[C@H](CC)CN1c1cc(=O)[nH]c2cn(CC#N)nc12 (stereo partly drawn) [Compound A265, 2-(7-((2S,5R)-2,5-diethyl-4-(1-(4-fluoro-2-(trifluoromethyl)phenyl)ethyl)piperazin-1-yl)-5-oxo-4,5-dihydro-2H-pyrazolo[4,3-b]pyridin-2-yl)acetonitrile] | 6.13 | < 5.00
6 | CC[C@H]1CN(C(C)c2ccc(F)cc2Br)[C@H](CC)CN1c1cc(=O)n(C)c2cn(CC#N)nc12 (stereo partly drawn) [Compound A111, 2-(7-((2S,5R)-4-(1-(2-bromo-4-fluorophenyl)ethyl)-2,5-diethylpiperazin-1-yl)-4-methyl-5-oxo-4,5-dihydro-2H-pyrazolo[4,3-b]pyridin-2-yl)acetonitrile] | 7.02 | < 5.00
7 | CCC(c1ccc(F)cc1C(F)(F)F)N1C[C@H](CC)N(c2cc(=O)n(C)c3cn(CC#N)nc23)C[C@H]1CC (some centres unmarked) [Compound A293] | 6.63 | 5.00
8 | CC[C@@H]1CN(c2c(F)c(=O)[nH]c3cn(CC#N)nc23)[C@@H](C)CN1C(C)c1ccc2nccnc2c1 (single isomer, unassigned) [Compound A194a] | 6.81 | 5.20
9 | CC#CCn1cc2c(n1)c(N1C[C@@H](CC)N(C(C)c3cc4ccccc4cn3)C[C@@H]1C)cc(=O)n2C (stereo partly drawn) [Compound A393, 2-(but-2-yn-1-yl)-7-((2S,5R)-5-ethyl-4-(1-(isoquinolin-3-yl)ethyl)-2-methylpiperazin-1-yl)-4-methyl-2,4-dihydro-5H-pyrazolo[4,3-b]pyridin-5-one] | 6.10 | 6.97
10 | CC[C@H]1CN(C(C)c2cccc(C(N)=O)c2)[C@H](CC)CN1c1cc(=O)n(C)c2cn(CC#N)nc12 (some centres unmarked) [Compound A108] | < 5.00 | 5.42
11 | CC[C@H]1CN(C(C)c2c(C)cnn2CC)[C@H](CC)CN1c1cc(=O)n(C)c2cn(CC#N)nc12 (single isomer, unassigned) [Compound A227b] | 6.16 | < 5.00
12 | CC[C@H]1CN(C(C)c2ccc(C(F)F)cc2)[C@H](CC)CN1c1cc(=O)n(C)c2cn(CC#N)nc12 (some centres unmarked) [Compound A128] | 6.95 | 7.51
13 | CC[C@H]1CN(C(C)c2ccc(C(F)(F)F)cc2F)[C@H](CC)CN1c1cc(=O)n(C)c2cn(CC#N)nc12 (single isomer, unassigned) [Compound A69a] | 7.60 | 6.89
14 | CC[C@H]1CN(C(C)c2ccc(C)c(C)c2)[C@H](CC)CN1c1cc(=O)n(C)c2cn(CC#N)nc12 (some centres unmarked) [Compound A384] | 7.00 | 5.76
15 | CC[C@@H]1CN(c2cc(=O)n(C)c3cn(CC#N)nc23)[C@@H](C)CN1C(C)c1ccc(F)cc1OC (stereo partly drawn) [Compound A137, 2-(7-((2S,5R)-5-ethyl-4-(1-(4-fluoro-2-methoxyphenyl)ethyl)-2-methylpiperazin-1-yl)-4-methyl-5-oxo-4,5-dihydro-2H-pyrazolo[4,3-b]pyridin-2-yl)acetonitrile] | 6.97 | < 5.00
16 | CC(c1ccc(CN2CCOC(C)(C)C2)cc1)N1C[C@H](C)N(c2cc(=O)n(C)c3cn(CC#N)nc23)C[C@H]1C (stereo partly drawn) [Compound A341, 2-(7-((2S,5R)-4-(1-(4-((2,2-dimethylmorpholino)methyl)phenyl)ethyl)-2,5-dimethylpiperazin-1-yl)-4-methyl-5-oxo-4,5-dihydro-2H-pyrazolo[4,3-b]pyridin-2-yl)acetonitrile] | 5.37 | 5.79
17 | COc1cc(F)ccc1C(C)N1C[C@H](C)N(c2cc(=O)n(C)c3cn(CC#N)nc23)C[C@H]1C (stereo partly drawn) [Compound A248, 2-(7-((2S,5R)-4-(1-(2-omethoxy-4-fluorophenyl)ethyl)-2,5-dimethylpiperazin-1-yl)-4-methyl-5-oxo-4,5-dihydro-2H-pyrazolo[4,3-b]pyridin-2-yl)acetonitrile] | – | < 5.00
18 | C[C@H]1CN([C@@H](C)c2ccc3c(c2)OC(C)(C)CO3)[C@@H](C)CN1c1cc(=O)n(C)c2cn(CC#N)nc12 [Compound A46a] | < 5.00 | < 5.00
19 | CC(c1ccc2nccnc2c1)N1C[C@H](CCO)N(c2cc(=O)n(C)c3cn(CC#N)nc23)C[C@H]1C (stereo partly drawn) [Compound A145, 2-(7-((2S,5R)-2-(2-hydroxyethyl)-5-methyl-4-(1-(quinoxalin-6-yl)ethyl)piperazin-1-yl)-4-methyl-5-oxo-4,5-dihydro-2H-pyrazolo[4,3-b]pyridin-2-yl)acetonitrilecetonitrile] | 7.26 | 4.69
20 | CC[C@H]1CN(C(C)c2nn(CC)cc2C#N)[C@H](CC)CN1c1cc(=O)n(C)c2cn(CC#N)nc12 (stereo partly drawn) [Compound A240, 3-(1-((2R,5S)-4-(2-(cyanomethyl)-4-methyl-5-oxo-4,5-dihydro-2H-pyrazolo[4,3-b]pyridin-7-yl)-2,5-diethylpiperazin-1-yl)ethyl)-1-ethyl-1H-pyrazole-4-carbonitrile] | 5.70 | 6.02
21 | Cc1cnc2ccc([C@H](C)N3C[C@H](C)N(c4nc(=O)n(C)c5cn(CC#N)nc45)C[C@H]3C)cc2n1 [Compound A319, 2-(7-((2S,5R)-2,5-dimethyl-4-((S)-1-(3-methylquinoxalin-6-yl)ethyl)piperazin-1-yl)-4-methyl-5-oxo-4,5-dihydro-2H-pyrazolo[4,3-d]pyrimidin-2-yl)acetonitrile] | 7.64 | 4.30
22 | CCc1cnc2ccc(C(C)N3C[C@H](C)N(c4cc(=O)n(C)c5cn(CC#N)nc45)C[C@H]3C)cc2n1 (stereo partly drawn) [Compound A278, 2-(7-((2S,5R)-4-(1-(3-ethylquinoxalin-6-yl)ethyl)-2,5-dimethylpiperazin-1-yl)-4-methyl-5-oxo-4,5-dihydro-2H-pyrazolo[4,3-b]pyridin-2-yl)acetonitrile] | 7.19 | 4.26
23 | CC[C@H]1CN([C@H](C)c2nc(Cl)cn2CC)[C@H](CC)CN1c1cc(=O)n(C)c2cn(CC#N)nc12 (single isomer, unassigned) [Compound A191b] | – | < 5.00
24 | CC[C@H]1CN([C@H](C)c2ncccc2OC)[C@H](CC)CN1c1cc(=O)n(C)c2cn(CC#N)nc12 (single isomer, unassigned) [Compound A92b] | – | < 5.00
25 | Cc1nc2ccc(C(C)N3C[C@H](C)N(c4cc(=O)n(C)c5cn(CC#N)nc45)C[C@H]3C)cn2n1 (mixture of isomers) [Compound A321] | – | < 3.82
26 | CC[C@H]1CN([C@H](C)c2ccc3nccnc3c2)[C@H](CC)CN1c1cc(=O)n(C(C)C)c2cn(CC#N)nc12 (single isomer, unassigned) [Compound A190b] | – | < 5.00
